Data on one compound can be found in ChEMBL document CHEMBL5046245, “Identification of Pyruvate Carboxylase as the Cellular Target of Natural Bibenzyls with Potent Anticancer Activity against Hepatocellular Carcinoma via Metabolic Reprogramming” (J Med Chem, 2022).

The source made the active and inactive calls. No cut-off for these calls is given here.

Series [1] in a line: Systemic toxicity in NCR-nu/nu mouse bearing human HCCLM3 tumor assessed as pathological change in spleen at 25 to 50 mg/kg, ip administered alternate days for 21 days and measured 26 days post implantation by H and E staining based analysis. Type of series: organism-based. The settings on record: in vivo, 504 h, dose 25-50 mg/kg, time 21 day.
The subject of series [2] is SK-HEP1. Put plainly: Inhibition of mesenchymal transition in human SK-HEP1 cells overexpressing PC assessed as effect on fibronectin expression. The class given is functional, cell-based.
Series [3] deals with HepG2. Briefly: Induction of apoptosis in human HepG2 cells assessed as cell rounding at 100 nM incubated for 24 hrs by DAPI staining based phase contrast microscopic analysis. The class given is functional.
In series [4] the test system is SK-HEP1. Put plainly: Inhibition of mesenchymal transition in human SK-HEP1 cells overexpressing PC assessed as effect on N-cadherin expression. The class given is functional, cell-based.
Series [5] can be described thus: Systemic toxicity in NCR-nu/nu mouse bearing human HCCLM3 tumor assessed as pathological change in lung at 25 to 50 mg/kg, ip administered alternate days for 21 days and measured 26 days post implantation by H and E staining based analysis. The class given is organism-based. To be noted: in vivo, 504 h, dose 25-50 mg/kg, time 21 day.
Series [6] concerns HepG2. Briefly: Induction of apoptosis in human HepG2 cells transfected with PC-flag plasmid assessed as reduction in cell viability at 20 to 100 nM incubated for 48 hrs by MTT assay. The class given is functional, cell-based. The settings on record: dose 20-100 nM. On the technique in general: Tetrazolium assays rely on reduction of a dye to a coloured formazan, in cell work by metabolically active cells.

Series [7] relates to HCCLM3. Put plainly: Antimigratory activity against PC knockout human HCCLM3 cells assessed as suppression of cell migration at 0.5 nM measured after 48 hrs by wound healing assay. The class given is functional, cell-based.
Series [8] has as its system SK-HEP1. Put plainly: Anti-invasive activity in human SK-HEP1 cells overexpressing PC assessed as suppression of cell invasion at 0.05 nM measured after 48 hrs by transwell assay. Type of series: functional, cell-based.
The species named for series [9] is Homo sapiens. Put plainly: Binding affinity to recombinant pyruvate carboxylase (unknown origin) assessed as thermal stability at upto 1000 nM by cellular thermal […] assay. The settings on record: dose nM <=1000.
The test system of series [10] is SK-HEP1. Briefly: Inhibition of epithelial transition in human SK-HEP1 cells overexpressing PC assessed as effect on E-cadherin expression. Type of series: functional, cell-based.

Regarding `COc1ccc(CCc2cc(OC)c(OC)c(OC)c2)cc1O`, the Activity result in series [1] and in series [5] was “Non-Toxic” in each case. For the same compound, the inhibition entry in series [2], in [4] and in series [10] was “inactive” throughout. Moreover, the outcome in [3], in series [7], in [8] and in series [9] was Active. For the same compound, the result in series [6] was inactive.
